Reference: the NIST ThermoML archive (doi:10.1016/j.fluid.2015.07.037)
Numbers after ± are expanded uncertainties.

Legend:
[1] = Crystal; DTA
[2] = Molar enthalpy of transition or fusion; conditions: Crystal; DSC

Normal melting temperature [1]	Molar enthalpy of transition or fusion [2]	SMILES
179.54 ± 0.41 °C	18.5 ± 0.382 kcal/mol	C[C@H](N)[C@H](O)c1cccc(O)c1.O=C(O)[C@H](O)[C@@H](O)C(=O)O
170.22 ± 0.41 °C	19.1 ± 0.382 kcal/mol	CC(C)NCC(O)c1ccc(O)c(O)c1.Cl (stereo unspecified)

SMILES	Normal melting temperature [1]	Molar enthalpy of transition or fusion [2]
CNCC(O)c1ccc(O)cc1 (stereo unspecified) [synephrine]	190.38 ± 0.41 °C	23.8 ± 0.478 kcal/mol
